Test results as given in publication PMC11490426, “Structure-activity relationship of amino acid analogs to probe the binding pocket of sodium-coupled neutral amino acid transporter SNAT2” (Amino Acids, 2024).
Structures can show the parent of a compound that is named as a salt.

Assays:
SNAT2 [1] = target: T1, SNAT2 (Homo sapiens, UniProt Q96QD8); assay: Inhibition of SNAT2-mediated 3H-glycine uptake in hyperosmotically treated PC-3 cells; assay type: cell-based
T1 construct: hyperosmotically treated PC-3 cells, known to upregulate SNAT2; endogenous in cells; host or cells: PC-3 prostate cells exposed to hyperosmotic medium for 24 h
T1 sequence (Q96QD8 1-506): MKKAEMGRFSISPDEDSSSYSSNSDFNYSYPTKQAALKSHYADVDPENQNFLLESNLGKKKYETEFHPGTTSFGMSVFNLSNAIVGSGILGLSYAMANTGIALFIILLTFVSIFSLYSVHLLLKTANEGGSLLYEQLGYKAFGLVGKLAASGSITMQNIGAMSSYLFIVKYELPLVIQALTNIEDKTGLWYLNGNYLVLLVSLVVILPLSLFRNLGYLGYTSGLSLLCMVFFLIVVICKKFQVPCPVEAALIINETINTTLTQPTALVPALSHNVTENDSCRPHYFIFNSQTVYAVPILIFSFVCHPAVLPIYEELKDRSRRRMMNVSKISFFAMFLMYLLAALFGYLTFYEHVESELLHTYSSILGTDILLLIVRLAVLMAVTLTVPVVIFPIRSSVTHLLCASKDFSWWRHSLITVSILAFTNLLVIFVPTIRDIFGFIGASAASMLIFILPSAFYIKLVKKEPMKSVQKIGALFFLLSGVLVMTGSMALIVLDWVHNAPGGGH
Procedure: Where Y is the % uptake, X is the concentration of the inhibitor, Top and Bottom are the top and bottom plateau respectively, and IC50 is the half maximal inhibitory concentration. These studies were performed in at least 3 independent cell passages (n = 3) and a curve was defined for each independent passage. However, for each compound, the top and bottom were constrained to be the same amongst the different cell passages.

SNAT2 [2] = target: T1, SNAT2; assay: FLIPR membrane potential (FMP) assay in PC-3 cells; assay type: cell-based; conditions: hyperosmotically treated PC-3 cells
Procedure: PC-3 cells exposed to hyperosmotic media for 24 h were used to identify SNAT2 substrates in the FMP assay. The media was aspirated, and the cells were preincubated in HBSS + for 10 min at 37 °C and 220 rpm. Then the buffer was aspirated, and cells were then incubated in 50 µL HBSS + containing 0.55 mg ⋅ mL^− 1 (1x) FMP probe (Blue component A from Molecular Devices, San Jose, CA, USA) for 30 min at 37 °C and 220 rpm. […] First, the baseline was measured for 30 s by measuring each well every 3 s. The plate was then removed from the reader and 50 µL of substrate solutions containing 0.55 mg ⋅ mL^− 1 FMP probe was added. These solutions were prepared by mixing equal parts solution containing 2x FMP probe and solutions containing 4x the final concentration of substrate. […] Following this, the baseline of the next column was measured and followed the same procedure as just described.
For the FMP data, the baseline was defined as the mean fluorescence of the first data point before substrate addition. The baseline of each well was then subtracted from the data point to get the ΔF. Plotting ΔF as a function of time and calculating the area under the curve (AUC) after substrate addition was used as a measure of SNAT2 activity.

SNAT2 [3] = target: T1, SNAT2; assay: Intracellular amino acids and analogs quantified by OPA derivatization and HPLC-Fl after uptake in PC-3 cells; assay type: cell-based; conditions: 0.4 mM compound, 30 min uptake, pH 7.4
Procedure: Derivatization of AAs and analogs using o-phthalaldehyde (OPA) and 2-mercaptoethanol (2-ME) to make fluorescent derivatives was used to measure the intracellular amounts of AAs and analogs following uptake in hyperosmotically treated PC-3 cells. Before starting the experiment, the medium was aspirated, and the cells were preincubated in HBSS + for 15 min at 37 °C and 220 rpm. The cells were then incubated with 500 µL HBSS+ (background) or HBSS + containing AAs or analogs at given concentrations for 30 min at 37 °C and 220 rpm. After aspirating the donor solutions, the cells were washed thrice with 500 µL of ice-cold PBS while keeping the cells on ice. 200 µL of ice-cold 1x-trypsin was added to each well and allowed to distribute for 20–30 min while keeping the cells on ice. The plate was then transferred to an incubating microplate shaker at 37 °C and 220 rpm for about 8 min or until the cells had detached. 300 µL of ice-cold PBS was added to each well to resuspend the cells and transfer them to centrifuge tubes. The cells were centrifuged at 1000 G for 5 min (4 °C), the supernatant was removed, the cells were resuspended in 300 µL ice-cold PBS, and then centrifuged again at 1000 G for 5 min (4 °C). After removing the supernatant, the cell pellet was lysed by adding 100 µL of 80% methanol (20% ultrapure water) and placing the tubes in an ultrasonic bath for 10 min. The tubes were then centrifuged at 15,000 G for 15 min (4 °C) and the resulting supernatant was used for analysis.
The OPA reagent was prepared by spiking with 2 µL 2-ME per mL of OPA regent and was considered stable for use within one day. 10 µL of the cell samples or standards containing a mixture of the AAs and analogs of interest were placed in HPLC vials with 100 µL inserts. […] The autosampler kept the samples at 10 °C and the pretreatment function was used to automatically mix the samples with 10 µL of the OPA reagent and wait 4 min before loading 2 µL onto a YMC-Triart C18 column (75 × 3.0 mm, 1.9 μm, Mikrolab Aarhus, Viby J, Denmark). […] The fluorescence detector was set to excite at 350 nm and detect at 450 nm.
The resulting chromatograms were integrated and the area under the curve (AUC) of the standard samples was used to generate standard curves to determine the concentration of AAs and analogs in the cell samples. […] Amino acid levels detected in the background cell samples were subtracted from the other cell samples.

PC-3 cells = assay: CellTiter-Glo viability assay; assay type: cell-based, human; conditions: 20 mM, after 10 min of exposure, hyperosmotically treated PC-3 cells
Procedure: ^3H-glycine uptake in hyperosmotically treated PC-3 cells was performed as previously described (Jakobsen et al. [2023]). 5-minute uptake of 0.5 µCi ⋅ mL^− 1 3H-glycine (11.1 nM) was used, and each uptake was normalized to the uptake obtained in a control situation (31.2 ± 5.7 fmol ⋅ cm^− 2 ⋅ min^− 1) without subtracting the background uptake (2.62 ± 0.67 fmol ⋅ cm^− 2 ⋅ min^− 1). Compounds that inhibited uptake by more than 20% at the highest tested concentrations were tested in the CellTiter-Glo viability assay (Promega, Madison, WI, USA), to rule out that the observed inhibition was not caused by reduced cell viability (Fig. S1 in Supplementary Information SI).
Fig. S1 Cell viability of hyperosmotically treated PC-3 cells after 10 min incubation with various amino acids and analogs using the CellTiter-Glo assay. […] The plate was placed in a CLARIOstar® Plus plate reader from BMG LABTECH (Ortenberg, Germany) at room temperature and was then shaken for 2 minutes at 220 rpm. Luminescence was measured after 0, 5, 10, and 15 minutes. Background luminescence (obtained from adding CellTiter-Glo reagent to HBSS+ containing wells without cells) was subtracted from the sample luminescence and normalized to control wells only exposed to HBSS+ to determine the % viability. […] Statistically significant differences from the control detected by one-way ANOVA are shown (*: p < 0.05).

[4] = Stability in aqueous solution by HPLC-UV; assay type: physicochemical; conditions: 1 mM in ultrapure water, room temperature, over 3 days
Description: The resulting chromatograms were integrated and the area under the curve (AUC) of the standard samples was used to generate standard curves to determine the concentration of AAs and analogs in the cell samples. The pooled standard curves and example chromatograms can be seen in the SI (Figs. S2, S3). Amino acid levels detected in the background cell samples were subtracted from the other cell samples. L-Alanine benzyl ester only generated a peak with an equal retention time as L-alanine. It was assessed that the addition of OPA reagent increased the hydrolysis of the ester, thus only creating the L-alanine OPA derivative. […] Thus, the L-alanine peak was used to measure the presence of L-alanine benzyl ester in samples.
Fig. S4 HPLC-UV chromatograms of L-alanine benzyl ester and benzyl alcohol dissolved in ultrapure water. The samples were analyzed using a Waters 2695 HPLC system connected to a Waters 2487 Dual λ Absorbance Detector (Waters Corporation, MA, USA). The peaks were separated using a Sunfire C18 column (4.6 x 150 mm, 3.5 µm, Waters Corporation, MA, USA) at 45 °C and with a 0.7 ml/min flow of 70% mobile phase A (90/10% H2O/MeCN + 0.1% trifluoroacetic acid (TFA)) and 30% mobile phase B (10/90% H2O/MeCN + 0.1% TFA). 10 µL samples were injected and the peaks were detected at 254 nm. […]

C[C@H](N)C(=O)OCc1ccccc1 [L-Alanine benzyl ester, L-alanine benzyl ester hydrochloride]
IC50 (SNAT2 [1]; hyperosmotically treated PC-3 cells, 5 min uptake of 11.1 nM 3H-glycine, pH 7.4, read-out: IC50): 390 µM | inhibition of 3H-glycine uptake at different pH levels (SNAT2 [1]; pH 6.8, 7.4 and 8.0, 0.4 mM L-alanine benzyl ester or 0.2 mM L-alanine, two-way ANOVA): no significant differences in inhibition at the different pH levels | AUC of fluorescence response-time curve (SNAT2 [2]; 5 mM compound): 8.1 ± 1.4 10^5 RFU ∙ s | AUC of fluorescence response-time curve (SNAT2 [2]; 10 mM compound): -1.4 ± 3.2 10^5 RFU ∙ s | AUC, % of 10 mM L-alanine (SNAT2 [2]; 10 mM compound): -6.6 ± 14% | response in the FMP assay (stimulation of SNAT2 activity) (SNAT2 [2]; result in words): little or no stimulation of SNAT2 activity | fold change of intracellular accumulation in absence vs presence of 10 mM L-glutamine (SNAT2 [3]): 6.7 fold | decrease in cell viability (PC-3 cells): 23% | stability in aqueous solution [4]: stability was confirmed
